Test results published in patent publication US12115213B2, “Methods of treating fungal infections” (priority 2016, dated 2024).
Peptide text beside a SMILES is read from it. * marks the point of attachment. Cbz = O=C(OCc1ccccc1)*

Tested on: wild-type H99 strain
Experiment: Proteasome inhibitor / SDS sensitivity growth assay
Assay type: cell-based, Cryptococcus neoformans
Details: for growth of wild type and complemented strain with SDS and proteasome inhibitor: YPD with 0.025% SDS plus inhibitor
Experimental: For SDS sensitivity testing, SDS was added to YPD to a final concentration of 0.2% (wt/vol), and 2× serial dilutions were prepared in 96-well plates. Cells of H99, the fbp1Δ mutant, and its complemented strain were added to the wells to a final optical density at 600 nm (OD600) of 0.01. The plates were kept at 30° C., and the OD600 was measured every 24 h. […] Twofold serial dilutions were prepared in 96-well plates. The wild-type H99 strain was added to the well containing proteasome inhibitors (MG132 or […]) and SDS to a final OD600 of 0.01. The fbp1Δ mutant was added to YPD with 0.025% SDS only to a final OD600 of 0.01. The growth of cultures was determined by measuring the OD600 every 24 h.
To test whether SDS sensitivity is regulated by the SCF(Fbp1) E3 ligase function, the effects of proteasome inhibitors on Cryptococcus SDS sensitivity was investigated. Fungal growth rates of the wild-type H99 strain, the fp1Δ mutant, and its complemented strain on YPD medium containing 0.025% SDS were determined in the absence or presence of the proteasome inhibitor MG132 or PS-341. MG132 is a cell-permeative proteasome inhibitor which can reduce the degradation of ubiquitin-conjugated proteins by the 26S complex without affecting its ATPase or isopeptidase activity. PS-341 is a potent and reversible proteasome inhibitor that functions to […]. […] Therefore, without wishing to be bound by theory, certain substrates of Fbp1 may also participate in regulation of cell membrane integrity.

| SMILES | effect on growth of the wild-type strain or the mutant, inhibitor alone (25 μM MG132, YPD without SDS) | growth of wild type and complemented strain with SDS and proteasome inhibitor | effect on growth of the wild-type strain or the mutant, inhibitor alone (100 μM PS-341, YPD without SDS) |
| --- | --- | --- | --- |
| CC(C)C[C@@H](C=O)NC(=O)[C@H](CC(C)C)NC(=O)[C@H](CC(C)C)NC(=O)OCc1ccccc1 [MG132] (Cbz-Leu-Leu-Leu-aldehyde) | Neither 25 μM MG132 nor 100 μM PS-341 alone affected the growth | significant growth defect | – |
| CC(C)C[C@H](NC(=O)[C@H](Cc1ccccc1)NC(=O)c1cnccn1)B(O)O [PS-341] | – | significant growth defect | Neither 25 μM MG132 nor 100 μM PS-341 alone affected the growth |
